Active and inactive are the calls of the source.
Experiments:
[1] = control 3'UTR Renilla luciferase suppression, dose response, counter-screen for Shn3 inhibitor project, cell-based, Clone20-Shn3RL, cherry-picked (AID 624133); assay type: functional
[2] = Shn3 3'UTR reporter inhibitors, dose response, cell-based, Clone20 osteoblasts, firefly luciferase, cherry-picked (AID 624132); assay type: functional;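 note: firefly luciferase luminescence from reporter carrying the Shn3 3'UTR in osteoblasts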
[3] = ADAM10 inhibitors, peptide cleavage, dose response, biochemical, QFRET (AID 743254);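 note: ADAM10 enzyme with the DM2 quenched FRET peptide as substrate; EDANS fluorescence gain as the protease cuts the substrate; inhibitor potency against ADAM10 proteolytic activity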
Paired box protein Pax-8 = Paired box protein Pax-8 (Homo sapiens, UniProt Q06710); test: inhibitors of PAX8-driven TPO luciferase reporter, dose response, RMG-I cells, cherry-pick (AID 687027); assay type: functional, cell-based;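 note: luciferase reporter driven by Pax8 target thyroperoxidase promoter measured by SteadyGlo luminescence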
Sequence of Paired box protein Pax-8 (Q06710 whole entry, the tested form may be a part): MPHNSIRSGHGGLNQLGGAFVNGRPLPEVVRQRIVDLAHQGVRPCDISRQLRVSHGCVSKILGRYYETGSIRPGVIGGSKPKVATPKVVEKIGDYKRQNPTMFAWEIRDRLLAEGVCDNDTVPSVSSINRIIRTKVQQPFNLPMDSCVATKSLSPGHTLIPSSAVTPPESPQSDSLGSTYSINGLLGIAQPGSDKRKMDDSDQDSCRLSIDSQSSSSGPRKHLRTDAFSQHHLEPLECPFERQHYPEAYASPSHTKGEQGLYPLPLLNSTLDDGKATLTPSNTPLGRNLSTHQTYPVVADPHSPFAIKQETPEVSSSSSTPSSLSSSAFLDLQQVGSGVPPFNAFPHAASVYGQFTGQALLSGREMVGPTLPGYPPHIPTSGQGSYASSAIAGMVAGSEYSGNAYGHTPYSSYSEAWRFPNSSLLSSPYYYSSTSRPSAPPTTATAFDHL

[4] = biological target: Disintegrin and metalloproteinase domain-containing protein 17 (Homo sapiens, UniProt P78536); test: ADAM17 protease inhibitors, dose response, counter-screen for ADAM10 exosite inhibitor project, biochemical, quenched FRET substrate (AID 743253)
HT-1080 = test: cytotoxicity in HT1080 fibrosarcoma cells, cell-based, fluorescence readout (AID 620); assay type: functional; details: Homo sapiens
[5] = biological target: ADP-ribosylation factor GTPase-activating protein 1 (Rattus norvegicus, UniProt Q62848); test: Fluorescence polarization-based biochemical high throughput dose response screening assay to identify inhibitors of ADP-ribosylation factor GTPase activating protein 1 (ARFGAP1).; assay type: functional
Sequence of ADP-ribosylation factor GTPase-activating protein 1 (Q62848 whole entry, the tested form may be a part): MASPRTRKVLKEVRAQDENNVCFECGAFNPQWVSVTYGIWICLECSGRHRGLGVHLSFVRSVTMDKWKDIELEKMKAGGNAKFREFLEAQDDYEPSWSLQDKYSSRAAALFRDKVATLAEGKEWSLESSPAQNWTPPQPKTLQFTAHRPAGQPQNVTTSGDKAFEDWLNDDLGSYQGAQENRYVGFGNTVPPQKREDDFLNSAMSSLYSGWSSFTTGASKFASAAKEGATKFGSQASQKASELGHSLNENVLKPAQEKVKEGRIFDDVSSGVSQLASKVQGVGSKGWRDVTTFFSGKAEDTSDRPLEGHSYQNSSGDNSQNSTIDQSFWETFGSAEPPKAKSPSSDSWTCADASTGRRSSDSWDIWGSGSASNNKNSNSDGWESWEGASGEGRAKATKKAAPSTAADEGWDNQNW

[6] = biological target: Arf-GAP with SH3 domain, ANK repeat and PH domain-containing protein 1 (Homo sapiens, UniProt Q9ULH1); assay type: functional;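 note: biochemical fluorescence polarization dose–response screen measuring inhibition of ASAP1; ASAP1 GAP domain stimulating GTP hydrolysis by truncated human ARF1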
Sequence of Arf-GAP with SH3 domain, ANK repeat and PH domain-containing protein 1 (Q9ULH1 whole entry, the tested form may be a part): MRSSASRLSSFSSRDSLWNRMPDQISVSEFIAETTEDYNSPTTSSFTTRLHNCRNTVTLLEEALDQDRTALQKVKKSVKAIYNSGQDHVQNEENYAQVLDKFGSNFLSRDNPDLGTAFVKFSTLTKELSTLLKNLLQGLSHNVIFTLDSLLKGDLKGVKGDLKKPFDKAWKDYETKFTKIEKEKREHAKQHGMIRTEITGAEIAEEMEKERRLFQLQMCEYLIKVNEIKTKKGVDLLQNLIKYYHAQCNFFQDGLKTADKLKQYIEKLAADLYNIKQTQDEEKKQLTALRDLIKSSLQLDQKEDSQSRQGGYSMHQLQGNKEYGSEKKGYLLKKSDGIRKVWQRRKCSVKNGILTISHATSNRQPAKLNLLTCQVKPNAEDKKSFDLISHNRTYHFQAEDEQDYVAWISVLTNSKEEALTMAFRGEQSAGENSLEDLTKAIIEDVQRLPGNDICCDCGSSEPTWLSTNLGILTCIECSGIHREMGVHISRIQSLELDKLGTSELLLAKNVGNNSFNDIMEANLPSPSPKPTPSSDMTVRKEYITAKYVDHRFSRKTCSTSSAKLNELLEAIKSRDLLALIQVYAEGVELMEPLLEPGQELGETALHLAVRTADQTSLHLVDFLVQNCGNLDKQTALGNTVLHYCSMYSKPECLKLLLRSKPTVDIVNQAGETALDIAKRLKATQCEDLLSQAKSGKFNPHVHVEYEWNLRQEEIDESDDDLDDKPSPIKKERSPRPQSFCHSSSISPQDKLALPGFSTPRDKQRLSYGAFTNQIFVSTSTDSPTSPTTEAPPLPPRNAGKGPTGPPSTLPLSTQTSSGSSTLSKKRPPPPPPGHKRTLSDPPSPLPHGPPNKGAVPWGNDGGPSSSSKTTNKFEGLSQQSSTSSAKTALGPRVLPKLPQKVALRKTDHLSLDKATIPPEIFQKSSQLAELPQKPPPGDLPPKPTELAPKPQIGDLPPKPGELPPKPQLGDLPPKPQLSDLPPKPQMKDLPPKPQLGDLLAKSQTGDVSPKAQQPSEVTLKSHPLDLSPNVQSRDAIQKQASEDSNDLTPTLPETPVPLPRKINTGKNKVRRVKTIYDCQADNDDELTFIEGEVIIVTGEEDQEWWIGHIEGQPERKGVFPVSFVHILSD

[7] = P. falciparum Dd2 growth inhibitors, dose response, SYBR Green, cherry-picked samples (AID 1159567); assay type: functional, cell-based
[8] = HepG2 cell cytotoxicity, dose response, cytotoxicity control, cherry-picked samples (AID 1159577); assay type: functional, cell-based
[9] = NIH:OVCAR-3 ovarian cancer cell cytotoxicity, dose response, PAX8 inhibitor project, plate reader, dry powder samples (AID 743044); assay type: functional, cell-based
[10] = cytotoxicity in OVCAR8 ovarian cancer cells, dose response, PAX8 project, cell-based, plate reader, dry powder samples (AID 743197); assay type: functional; details: OVCAR-8
[11] = IOSE-T80 ovarian epithelial cell cytotoxicity, dose response, cytotoxicity control for PAX8 inhibitor project, plate reader, dry powder samples (AID 743045); assay type: functional, cell-based
[12] = non-specific cell cytotoxicity, dose response, cytotoxicity control for PAX8 inhibitor project, plate reader, dry powder samples (AID 743021); assay type: functional, cell-based
[13] = A2780 ovarian cancer cell cytotoxicity, dose response, cytotoxicity control, plate reader, dry powder samples (AID 743046); assay type: functional, cell-based
[14] = IGROV1 ovarian cancer cell cytotoxicity, dose response, PAX8 inhibitor project, plate reader, dry powder samples (AID 743043); assay type: functional, cell-based; details: IGROV-1
[15] = Luminescence Cell-Based Dose Response to Identify Activators of Luciferase Translation or Activity in H4-C Neuroglioblastoma Cells. [Related pubchem assays: 1829 (Project Summary), 1814 (Primary HTS)]; assay type: functional
[16] = Luminescence Cell-Based Dose Confirmation to Identify Activators of 5'UTR Stem-Loop Driven Alpha-Synuclein mRNA Translation in H4 Neuroglioblastoma Cells. [Related pubchem assays: 1829 (Project Summary), 1814 (Primary HTS)]; assay type: functional
[17] = Luminescence Cell-Based Dose Response HTS to Identify Activators of Luciferase Translation or Activity in H4 […] Cells. [Related pubchem assays: 1829 (Project Summary), 1814 (Primary HTS)]; assay type: functional
[18] = Luminescence Cell-Based Dose Response to Identify Activators of 5'UTR Stem-Loop Driven Prion Protein mRNA Translation in H4-C Neuroglioblastoma Cells. [Related pubchem assays: 1829 (Project Summary), 1814 (Primary HTS)]; assay type: functional
[19] = HEK293 cell cytotoxicity, dose response, cytotoxicity control, plate reader, cherry-picked samples (AID 743446); assay type: functional, cell-based
[20] = HepG2 cell cytotoxicity, dose response, cytotoxicity control, plate reader, cherry-pick, antagonist series (AID 743416); assay type: functional, cell-based
[21] = LGR2 antagonists, dose response, cell-based, HEK293, CRE-luciferase reporter, cherry pick, set 2 (AID 743343); assay type: functional;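 note: transfected cells were stimulated with diluted bursicon conditioned medium after compound addition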
[22] = A549 cell cytotoxicity, dose response, cytotoxicity control, plate reader, cherry-pick, antagonist series (AID 743412); assay type: functional, cell-based
[23] = MC4R antagonists, dose response, counter-screen for LGR2 antagonist project, cell-based, plate reader, cherry pick (AID 743444); assay type: functional;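 note: transfected HEK 293 cells stimulated with alpha-MSH peptide; potency of inhibitors of the alpha-MSH evoked signal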
[24] = biological target: 1-phosphatidylinositol 4,5-bisphosphate phosphodiesterase beta-3 (Homo sapiens, UniProt Q01970); test: Fluorescence-based biochemical high throughput dose response assay to identify inhibitors of phospholipase C isozymes (PLC-B3).
Sequence of 1-phosphatidylinositol 4,5-bisphosphate phosphodiesterase beta-3 (Q01970 whole entry): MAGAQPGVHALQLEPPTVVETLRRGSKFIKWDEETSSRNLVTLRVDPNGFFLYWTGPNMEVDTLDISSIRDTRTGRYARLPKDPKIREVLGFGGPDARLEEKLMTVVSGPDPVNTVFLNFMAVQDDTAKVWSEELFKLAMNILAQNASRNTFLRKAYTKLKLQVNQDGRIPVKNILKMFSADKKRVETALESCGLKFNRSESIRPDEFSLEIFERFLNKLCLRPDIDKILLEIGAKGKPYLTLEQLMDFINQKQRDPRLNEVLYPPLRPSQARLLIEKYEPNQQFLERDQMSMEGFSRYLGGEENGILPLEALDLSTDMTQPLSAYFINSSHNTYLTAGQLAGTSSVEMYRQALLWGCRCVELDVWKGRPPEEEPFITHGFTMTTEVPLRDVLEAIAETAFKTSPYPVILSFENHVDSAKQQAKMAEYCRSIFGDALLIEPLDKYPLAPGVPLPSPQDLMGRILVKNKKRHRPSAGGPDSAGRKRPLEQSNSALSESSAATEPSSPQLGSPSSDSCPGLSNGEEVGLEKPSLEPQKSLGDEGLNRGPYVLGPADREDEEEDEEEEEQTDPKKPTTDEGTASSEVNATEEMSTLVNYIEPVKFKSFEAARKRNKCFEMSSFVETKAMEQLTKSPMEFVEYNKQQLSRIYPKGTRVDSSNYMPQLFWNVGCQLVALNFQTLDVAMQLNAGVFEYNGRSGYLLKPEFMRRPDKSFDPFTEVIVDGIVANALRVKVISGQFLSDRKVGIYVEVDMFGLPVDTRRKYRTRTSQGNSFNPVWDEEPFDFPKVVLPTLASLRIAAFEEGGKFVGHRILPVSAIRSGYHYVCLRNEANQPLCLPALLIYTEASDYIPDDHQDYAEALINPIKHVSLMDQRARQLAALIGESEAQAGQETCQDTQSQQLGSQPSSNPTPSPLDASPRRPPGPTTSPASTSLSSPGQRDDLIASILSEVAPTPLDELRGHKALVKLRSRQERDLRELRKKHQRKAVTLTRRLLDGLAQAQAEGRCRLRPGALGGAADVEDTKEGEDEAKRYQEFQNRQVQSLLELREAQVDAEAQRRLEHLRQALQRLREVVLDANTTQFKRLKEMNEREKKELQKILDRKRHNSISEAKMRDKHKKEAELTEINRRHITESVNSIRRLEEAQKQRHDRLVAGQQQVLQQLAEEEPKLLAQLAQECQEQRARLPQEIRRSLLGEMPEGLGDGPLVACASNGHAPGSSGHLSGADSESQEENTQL

Vero = Vero cell cytotoxicity, cytotoxicity control for flavivirus capping enzyme inhibitors (AID 588742); assay type: functional; details: Chlorocebus sabaeus
[25] = biological target: 1-phosphatidylinositol 4,5-bisphosphate phosphodiesterase gamma-1 (Homo sapiens, UniProt P19174); test: Counterscreen for inhibitors of phospholipase C isozymes (PLC-B3): Fluorescence-based biochemical high throughput dose response assay to identify inhibitors of phospholipase C isozymes (PLC-gamma1).
Sequence of 1-phosphatidylinositol 4,5-bisphosphate phosphodiesterase gamma-1 (P19174 whole entry): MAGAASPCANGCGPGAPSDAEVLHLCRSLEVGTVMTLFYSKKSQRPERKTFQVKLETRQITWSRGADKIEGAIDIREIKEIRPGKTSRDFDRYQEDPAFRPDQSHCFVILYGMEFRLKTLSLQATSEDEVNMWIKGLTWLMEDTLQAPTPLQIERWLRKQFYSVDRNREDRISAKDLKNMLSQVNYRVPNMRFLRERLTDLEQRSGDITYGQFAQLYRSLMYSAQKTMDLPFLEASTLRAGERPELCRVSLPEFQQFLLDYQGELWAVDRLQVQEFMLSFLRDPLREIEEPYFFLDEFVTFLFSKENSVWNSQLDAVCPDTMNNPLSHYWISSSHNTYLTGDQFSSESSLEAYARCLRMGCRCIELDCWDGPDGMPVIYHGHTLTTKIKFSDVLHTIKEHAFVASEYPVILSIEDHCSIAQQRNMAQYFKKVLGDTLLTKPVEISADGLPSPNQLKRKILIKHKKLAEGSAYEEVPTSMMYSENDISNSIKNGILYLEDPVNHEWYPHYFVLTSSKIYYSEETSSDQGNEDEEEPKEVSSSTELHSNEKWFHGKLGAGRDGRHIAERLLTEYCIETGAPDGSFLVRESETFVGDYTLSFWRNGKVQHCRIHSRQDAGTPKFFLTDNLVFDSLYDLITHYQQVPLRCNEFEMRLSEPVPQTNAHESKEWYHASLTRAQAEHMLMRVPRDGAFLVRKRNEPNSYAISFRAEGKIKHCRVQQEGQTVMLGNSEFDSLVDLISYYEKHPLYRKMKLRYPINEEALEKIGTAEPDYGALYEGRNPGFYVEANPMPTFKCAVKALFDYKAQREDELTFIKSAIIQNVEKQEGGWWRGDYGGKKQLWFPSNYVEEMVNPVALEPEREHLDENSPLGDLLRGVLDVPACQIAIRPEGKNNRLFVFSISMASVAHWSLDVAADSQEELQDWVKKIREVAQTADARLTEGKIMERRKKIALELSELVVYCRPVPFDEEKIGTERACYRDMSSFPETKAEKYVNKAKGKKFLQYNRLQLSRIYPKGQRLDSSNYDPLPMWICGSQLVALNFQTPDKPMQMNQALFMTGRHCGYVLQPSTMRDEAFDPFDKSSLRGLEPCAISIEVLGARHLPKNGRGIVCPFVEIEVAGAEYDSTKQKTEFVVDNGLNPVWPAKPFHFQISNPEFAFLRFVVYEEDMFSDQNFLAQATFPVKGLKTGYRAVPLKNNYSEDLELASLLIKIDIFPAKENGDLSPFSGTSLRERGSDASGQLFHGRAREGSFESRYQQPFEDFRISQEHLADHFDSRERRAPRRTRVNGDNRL

Leucine aminopeptidase = biological target: T1, Leucine aminopeptidase (Plasmodium falciparum 3D7, UniProt Q8IL11); test: P. falciparum M17LAP inhibitors, primary screen, biochemical, fluorogenic H-Leu-NHMec substrate, 1536-well (AID 1619); assay type: functional
T1 sequence (Q8IL11 whole entry): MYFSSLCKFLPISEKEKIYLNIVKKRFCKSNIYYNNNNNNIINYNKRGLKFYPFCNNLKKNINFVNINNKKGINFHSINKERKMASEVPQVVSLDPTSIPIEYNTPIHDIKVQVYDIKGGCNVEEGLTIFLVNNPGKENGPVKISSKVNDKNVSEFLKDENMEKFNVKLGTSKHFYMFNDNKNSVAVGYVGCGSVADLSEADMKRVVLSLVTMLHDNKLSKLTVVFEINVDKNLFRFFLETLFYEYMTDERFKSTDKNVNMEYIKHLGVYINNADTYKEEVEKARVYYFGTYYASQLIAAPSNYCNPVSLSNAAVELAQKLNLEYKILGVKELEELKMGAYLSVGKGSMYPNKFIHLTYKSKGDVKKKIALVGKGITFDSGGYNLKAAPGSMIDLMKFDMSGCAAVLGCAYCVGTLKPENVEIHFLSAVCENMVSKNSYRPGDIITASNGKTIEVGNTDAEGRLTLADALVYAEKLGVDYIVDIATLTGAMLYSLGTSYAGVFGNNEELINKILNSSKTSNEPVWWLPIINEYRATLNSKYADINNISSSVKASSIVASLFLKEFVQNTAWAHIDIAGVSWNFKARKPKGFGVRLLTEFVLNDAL

Genome polyprotein = Genome polyprotein (dengue virus type 2, UniProt P29990); test: Dengue-2 NS5 methyltransferase inhibitors, primary screen, biochemical, confirmation dose response (AID 588689); assay type: functional
[26] = A375 melanoma cell viability loss, dose response, counter-screen for MITF inhibitor project, CellTiter-Glo luminescence, dry powder, set 4 (AID 624364); assay type: functional, cell-based; details: A-375;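 note: A375 melanoma cells are MITF independent so this is a counter screen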
[27] = A375 melanoma cell cytotoxicity, dose response, counter-screen for MITF inhibitor project, CellTiter-Glo luminescence, dry powder, set 2 (AID 624489); assay type: functional, cell-based; details: A-375;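 note: actives are compounds lowering A375 viability meaning general cytotoxicity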
Estrogen receptor beta [28] = biological target: T2, Estrogen receptor beta (Homo sapiens, UniProt Q92731); test: ERβ–SRC-3 coactivator interaction inhibitors, confirmation, orthogonal assay, biochemical, ELISA, streptavidin-HRP readout (AID 1060)
T2 sequence (Q92731 whole entry): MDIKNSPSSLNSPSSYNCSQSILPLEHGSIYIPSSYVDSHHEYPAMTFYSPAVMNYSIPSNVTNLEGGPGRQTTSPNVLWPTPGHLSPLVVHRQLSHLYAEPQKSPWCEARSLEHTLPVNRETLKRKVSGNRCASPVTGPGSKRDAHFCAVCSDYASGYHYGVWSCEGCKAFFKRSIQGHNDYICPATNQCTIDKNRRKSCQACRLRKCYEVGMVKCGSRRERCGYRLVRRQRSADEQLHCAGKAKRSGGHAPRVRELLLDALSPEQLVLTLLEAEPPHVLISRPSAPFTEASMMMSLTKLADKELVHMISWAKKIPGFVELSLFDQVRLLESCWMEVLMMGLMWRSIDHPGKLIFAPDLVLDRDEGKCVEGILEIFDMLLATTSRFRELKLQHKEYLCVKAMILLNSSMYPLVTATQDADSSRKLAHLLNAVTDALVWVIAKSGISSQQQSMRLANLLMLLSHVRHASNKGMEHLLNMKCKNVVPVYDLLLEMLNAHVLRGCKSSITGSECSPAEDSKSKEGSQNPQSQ

Estrogen receptor beta [29] = biological target: T2, Estrogen receptor beta

With C=CCC[C@H](Cc1ccc(F)cc1)C(=O)OC[C@H](Cc1c[nH]c2ccccc12)NC(=O)[C@H](CC=C)CC(=O)N(CCO)Cc1ccccc1 as the compound, how does the AC50 [1] read?
The AC50 was 20.1 µM (active).

What about the AC50 [2] of the same compound?
The AC50 was 11.7 µM (active).

What about the IC50 [3] of the same compound?
Its IC50 is 6.93 µM (active).

What about the AC50 (Paired box protein Pax-8) of the same compound?
Its AC50 is 12.9 µM (active).

What about the IC50 [4] of the same compound?
Its IC50 is > 69.5 µM (inactive).

With Cc1cc(C(=O)COC(=O)c2[nH]nc3ccccc23)c(C)n1C as the compound, how does the EC50 (HT-1080) read?
The EC50 was > 50 µM (not active).

What about the IC50 [5] of the same compound?
Its IC50 is 32.4 µM (inactive).

And the IC50 [6]?
Its IC50 is 37.6 µM (inactive).

Which AC50 [7] does the source give for C(=C\c1ccc([C@H]2[C@@H]3CN(Cc4ccc5c(c4)OCO5)C[C@H]2N3)cc1)/c1ccccc1 here?
The AC50 was 2.83 µM (active).

What about the AC50 [8] of the same compound?
Its AC50 is 8.83 µM (active).

And the AC50 [9]?
The AC50 was 17.6 µM (active).

What about the AC50 [10] of the same compound?
Its AC50 is 35.1 µM (active).

And the AC50 [11]?
Its AC50 is 32.4 µM (active).

What about the AC50 [12] of the same compound?
The AC50 was 31.7 µM (active).

And the AC50 (Paired box protein Pax-8)?
Its AC50 is 20.2 µM (active).

And the AC50 [13]?
Its AC50 is 12 µM (active).

And the AC50 [14]?
The AC50 was 18.8 µM (active).

Which EC50 [15] does the source give for CC(C)c1ccc(C(=O)NNC(=O)C2C3CCC(C3)C2C(=O)O)cc1 (stereo not given) here?
The EC50 was 0.301 µM (active).

What about the EC50 [16] of the same compound?
Its EC50 is 0.232 µM (active).

What about the EC50 [17] of the same compound?
The EC50 was < 0.1 µM (inconclusive).

And the EC50 [18]?
The EC50 was 0.281 µM (active).

What does the source list for Cc1cccc(S(=O)(=O)N2CCCCN3[C@H](CO)[C@H](c4ccc(C#CC(C)C)cc4)[C@H]3C2)c1?
AC50 [9]: 9.65 µM (active); AC50 [10]: 28.4 µM (active); AC50 [11]: 36.9 µM (active); AC50 (Paired box protein Pax-8): 9.99 µM (active); AC50 [14]: 39.5 µM (active)

For CCCCn1nnnc1C(CCc1ccccc1)N1CCC(n2c(O)nc3ccccc32)CC1 (stereo not given), which AC50 [19] is on record?
Its AC50 is 19.8 µM (active).

And the AC50 [20]?
The AC50 was > 52 µM (inactive).

And the AC50 [21]?
Its AC50 is 20.1 µM (active).

And the AC50 [22]?
The AC50 was 19 µM (active).

What about the AC50 [23] of the same compound?
Its AC50 is 7.55 µM (active).

What does the source list for O=Cc1cc(N=Nc2cccc(C(=O)O)c2)ccc1O?
IC50 [24]: > 122 µM (inactive); CC50 (Vero): > 40 µM (active); IC50 [25]: 23.7 µM (inactive); IC50 (Leucine aminopeptidase): 51.5 µM (active); IC50 (Genome polyprotein): 99.6 µM (active)

For COc1ccc(C(=O)NC2=C(c3ccc(OC(F)(F)F)cc3)C(=O)c3ccccc3C2=O)cc1, which AC50 [26] is on record?
The AC50 was 41 µM (active).

What about the AC50 [27] of the same compound?
The AC50 was 23.4 µM (active).

Which results are given for CCOC(=O)c1c(C)[nH]c(C)c1C(=O)COC(=O)CCOc1ccccc1OC?
IC50 (Estrogen receptor beta [28]): > 109 µM (not active); IC50 (Estrogen receptor beta [29]): 35.3 µM (not active)

— ChEMBL document CHEMBL1201862, “PubChem BioAssay data set” (2004)
